The test system of this assay is Plasmodium falciparum. The experiment in a line: MMV: Measure of pLDH activity as indication of parasite viability. Gametocytogenesis of 3D7 Plasmodium falciparum strain was induced in vitro and asexual parasites were depleted with N-acetylglucosamine. Gametocytes were treated with dihydroartemisinin, epoxomicin, methylene blue, primaquine, puromycin or chloroquine in 96-well plates and the pLDH activity was evaluated using a modified Makler protocol. Mosquito infectivity was measured by the standard membrane feeding assay. It counts as functional. On the set-up: concentration or dose not given beside the values.
For `COc1cc2c3cc1Oc1c(OC)c(OC)cc4c1C(Cc1ccc(O)c(c1)Oc1ccc(cc1)CC3N(C)CC2)N(C)CC4.Cl` (stereo not given), the “Growth Inhibition” value was determined as 37.697%. For the molecule `COc1ccccc1N1CCN(C(CNS(=O)(=O)c2ccc(Cl)cc2)c2cccnc2)CC1` (stereo not given), the “Growth Inhibition” value is on record as 14.3398%.

Turning to `Cc1ccc(C)c(Cn2c(N3CCC(C(=O)NCc4cccs4)CC3)nc3ccccc32)c1`, the “Growth Inhibition” value was 5.2598%. The result for `CC(C)(C)c1ccc(O)c(CNC2CCCCC2)c1` reads 30.335%; that for `O=C1c2ccc3c4c(ccc(c24)C(=O)N1CCCCO)C(=O)N(CCCCO)C3=O`, 33.201%; that for `O=C(Nc1nc(-c2ccccn2)cs1)c1ccccc1Br`, 29.0858%. The value for `COc1ccccc1CNC(=O)C1c2ccccc2C(=O)N(CC(C)C)C1c1cccs1` (stereo not given) was 12.474%. Take `CC(C)(C)C(=O)Nc1ccc(C(=O)Nc2cccc(-c3nc4ccccc4[nH]3)c2)cc1`: the “Growth Inhibition” value was 13.3516%. As to `CC1CCN(Cc2ccc(NC(=O)c3cc4ccc5cccnc5c4[nH]3)cc2)CC1`, the “Growth Inhibition” value is recorded as 2.4882%. The value for `Cc1cc(N2CCCC2)nc(Nc2ccc(NC(=O)CCc3ccccc3)cc2)n1` was 14.278%; that for `COc1cccc(C2(C)Nc3ccccc3-c3nc4ccccc4n32)c1` (stereo not given) was 2.1776%; that for `Oc1ccccc1CN1CCC2(CCCN(Cc3ccccc3F)C2)C1` (stereo not given) was 46.3042%.

As to `Cc1ccc(F)cc1NC(=O)c1cc(Cl)ccc1Nc1ccccc1`, the “Growth Inhibition” value was 10.2234%. Take `Cc1cc(NC(=O)C2c3ccccc3C(=O)N(CC(C)C)C2c2cccs2)no1` (stereo not given): the “Growth Inhibition” value was 21.7574%.

As for `Cc1cc(C)cc(Nc2cc(C)nc3nc(C(F)(F)F)nn23)c1`, the “Growth Inhibition” value is recorded as -10.2568%. The value for `FC(F)(F)c1cccc(Nc2nc3ccccc3nc2Nc2cccc(C(F)(F)F)c2)c1` was 23.1188%; that for `Nc1ccc(-c2nc3cc(Oc4ccc(Oc5ccc6[nH]c(-c7ccc(N)cc7)nc6c5)cc4)ccc3[nH]2)cc1` was 21.5644%.

For the molecule `CCOc1ccc(/C=C/c2nc(=O)c3ccccc3o2)cc1`, the “Growth Inhibition” value turned out to be 7.7706%. `CCOc1cc(Br)c(C(C)NC(=O)c2cccc(OC)c2)cc1OCC` (stereo not given): the “Growth Inhibition” value came to 15.2596%. The value for `O=C(O)C(=O)O.Oc1ccc(Br)cc1CN1CCN(Cc2cccc(F)c2)CC1` was 29.456%. Regarding `O=C(Nc1ccc(-c2nc3cc4ccccc4cc3[nH]2)cc1)c1cccc(Br)c1`, the “Growth Inhibition” value was 12.54%. The result for `CCOc1ccc(-n2cc(-c3ccccc3)c3c(SCc4cc(C)ccc4C)ncnc32)cc1` reads 2.789%; that for `COc1ccc(-c2nc(N3CCN(C(=O)C4CCCCC4)CC3)c3c4c(sc3n2)CCCC4)cc1`, -0.9006%; that for `COc1ccc(Br)cc1C1Nc2ccc3ccccc3c2C2=C1C(=O)CC(c1ccccc1)C2` (stereo not given), 7.0344%. The result for `Cc1sc(NC(=O)c2ccco2)c(C(c2cccnc2)N2CCC(Cc3ccccc3)CC2)c1C` (stereo not given) reads 4.6056%. Regarding `CCOC(=O)c1cnc2ccc(OC)cc2c1NCc1ccccc1`, the “Growth Inhibition” value was 11.9674%. The value for `O=C(NC1CCN(Cc2ccccc2)CC1)c1cc(-c2cccnc2)nc2ccc(Cl)cc12` was 12.1742%; that for `CN1CCN(c2ncnc3c2[nH]c2ccc(Cl)cc23)CC1` was 7.405%; that for `COc1ccc2c(c1)OC(O)(C(F)(F)C(F)(F)F)CC2=O` (stereo not given) was 11.5806%. On to `COc1ccccc1C(=O)ON=C(N)Cc1cccc2ccccc12`, for which the “Growth Inhibition” value was 8.274%. With `Cc1ccc(Cl)cc1N1CCN(CCCNC(=O)C2CCN(c3nc4ccccc4[nH]3)CC2)CC1`, the “Growth Inhibition” value came out at 21.502%. The value for `N#Cc1nc(Cc2cccc3ccccc23)oc1N1CCN(C(c2ccccc2)c2ccccc2)CC1` was -13.1388%; that for `CCCCc1ccc(NS(=O)(=O)c2cc3c4c(c2)CCN4C(=O)CC3)cc1` was -1.4264%.

Regarding `CCOC(=O)C1CCN(C(=O)CN2C(=O)c3ccccc3C2c2c[nH]c3ccccc23)CC1` (stereo not given), the “Growth Inhibition” value amounted to 48.711%. On to `COc1ccc(C(C)=O)cc1N1C(=O)C2C(C1=O)C1(c3ccccc3)C(=O)C2(c2ccccc2)C(c2ccc(C)cc2)=C1c1ccc(C)cc1` (stereo not given), for which the “Growth Inhibition” value was -2.6232%. The result for `CCC(C)NCC(O)(c1ccc(Cl)cc1)c1ccc(Cl)cc1` (stereo not given) reads 29.3926%; that for `FC(F)(F)c1cccc(CNC2CCN(CCc3ccccc3)CC2)c1`, 12.4718%. Take `COc1ccc(Nc2nc(NCc3ccccc3)c3ccccc3n2)cc1`: the “Growth Inhibition” value stood at 17.5424%. The value for `COc1ccc(C=C2SC(Nc3ccc(F)cc3)=NC2=O)c(OC)c1` was 32.1464%; that for `CN(C)c1ccc(N2C(N)=NC(N)=NC2(C)C)cc1` was 5.041%.

Consider `O=C(Cc1ccccc1)NC(c1ccc(Cl)cc1)c1c(O)ccc2ccccc12` (stereo not given), for which the “Growth Inhibition” value amounted to 13.3694%.

Consider `c1ccc(Cn2c(N=Nc3c(Nc4ccccc4)ccc4ccccc34)nc3ccccc32)cc1`, for which the “Growth Inhibition” value was 28.0754%. The result for `COc1ccc(C(=O)NC(c2ccccc2Cl)c2cc(Cl)c3cccnc3c2O)cc1` (stereo not given) reads 27.7302%; that for `COc1ccc(NC(=O)C2c3ccccc3C(=O)N(CC(C)C)C2c2cccs2)cc1Cl` (stereo not given), 14.3436%. The value for `C[n+]1c2ccccc2nc2ccc(NCCO)cc21` was 16.8202%; that for `COc1ccc(C2c3ccc4ccccc4c3Oc3ncn(CCCn4ccnc4)c(=N)c32)cc1OC` (stereo not given) was 22.0606%. Regarding `COc1nc(Nc2ccc(C(C)C)cc2)nc(OC)n1`, the “Growth Inhibition” value is recorded as 1.041%.

In the case of `FC(F)(F)c1cccc(Nc2nc(-c3ccccc3)nc3ncccc23)c1`, the “Growth Inhibition” value came out at 9.5538%.

In the case of `FC(F)(F)c1ccc(Nc2nnnc3ccccc23)cc1`, the “Growth Inhibition” value is on record as 21.2738%.

As to `c1ccc(CNc2nc(Nc3ccccc3)nc3ccccc23)cc1`, the “Growth Inhibition” value is 12.3006%.

As for `COc1ccc(CCn2c(=N)c(C(=O)NCc3cccnc3)cc3c(=O)n4cccc(C)c4nc32)cc1`, the “Growth Inhibition” value came to 4.0678%. In the case of `CCC(O)c1ccc(Br)cc1NC(=O)c1cccc(Cl)c1` (stereo not given), the “Growth Inhibition” value is 24.26%. The value for `CCOc1c(Cl)cc(CNC(C)C(O)c2ccccc2)cc1OC` (stereo not given) was 22.4902%; that for `O=C(Nc1ccc(Br)cc1)Nc1cccc(Cl)c1` was 8.8754%. As to `CCOc1c(Cl)cc(CNCC(O)c2ccccc2)cc1OC` (stereo not given), the “Growth Inhibition” value came out at 20.5848%. Take `O=C(NCC(c1ccsc1)N1CCCCCC1)c1ccc(C(F)(F)F)cc1` (stereo not given): the “Growth Inhibition” value is on record as -3.1098%. On to `COc1cc(OC)c(N(C)C(=O)c2cc3c(s2)-c2ccccc2S(=O)(=O)C3)cc1Cl`, for which the “Growth Inhibition” value stood at 6.301%.

For `O=C(Nc1cccc(-c2nc3ccccc3[nH]2)c1)c1cccc(NC(=O)c2ccco2)c1`, the “Growth Inhibition” value stood at 6.1984%. With `c1ccc(/C2=N/c3ccccc3/N=C(/c3ccccc3)c3ccccc32)cc1`, the “Growth Inhibition” value is on record as 14.1312%.

Take `Cc1cc(Nc2ccc(C)c(Cl)c2)n2nc(C(F)(F)F)nc2n1`: the “Growth Inhibition” value was found to be 1.818%. Take `COc1ccc(CN2CCN(Cc3ccccc3)CC2)c(O)c1`: the “Growth Inhibition” value is on record as 26.2585%. Consider `OCCNc1nc(Nc2ccc(Cl)c(Cl)c2)nc2ccccc12`, for which the “Growth Inhibition” value is given as 18.8816%. Regarding `Oc1ccc(C(=C(Cl)Cl)c2ccc(O)cc2)cc1`, the “Growth Inhibition” value came to 9.2564%. The result for `CCCc1c(C)nc2ccccc2c1O` reads 34.5652%; that for `COc1ccc(-c2nc(NC(=O)CS(=O)(=O)c3ccc(F)cc3)sc2C)cc1`, 30.52%. The value for `O=C(NC1CCN(Cc2ccccc2)CC1)c1cc2nc(-c3ccc(Cl)s3)cc(C(F)(F)F)n2n1` was 6.5116%. `CC(=O)NCCc1nc2ccccc2n1Cc1ccc(C(C)C)cc1`: the “Growth Inhibition” value is reported as 10.8344%. The result for `CCOC(=O)c1cn(CC)c2cc(N(C)CCc3ccc(OC)c(OC)c3)c(F)cc2c1=O` reads 25.5006%; that for `Brc1ccc(Nc2nc3ccccc3nc2Nc2ccc(Br)cc2)cc1`, 6.7896%. As to `OC1CCCCC1C1(NC(=S)Nc2ccccc2)CCCCC1` (stereo not given), the “Growth Inhibition” value is -6.2185%. The result for `CCN(CC)CCCNc1ccnc2cc3ccccc3cc12` reads 22.6902%; that for `CCOc1cc(CNC(C)C(O)c2ccccc2)cc(Cl)c1OCC` (stereo not given), 17.857%; that for `CCOc1ccc2nc(C)cc(Nc3ccc(Br)cc3)c2c1`, -8.7645%. With `Cc1ccc(-c2cc3nc4c(c(O)n3n2)CCCC4)cc1`, the “Growth Inhibition” value is 9.811%. For the molecule `Cc1cccc(N2C(=O)C3C(C2=O)C2(c4ccccc4)C(=O)C3(c3ccccc3)C(c3ccc4c(c3)OCO4)=C2c2ccc3c(c2)OCO3)c1` (stereo not given), the “Growth Inhibition” value came out at 6.488%. The result for `C=CC12CCN(CC1)C(C(O)c1ccnc3ccc(OC)cc13)C2.Cl` (stereo not given) reads 15.913%; that for `O=C(NCc1ccco1)C1CCN(S(=O)(=O)c2ccc(Br)cc2)CC1`, 6.982%; that for `Cc1cc(N2CCN(C3CCCC3)CC2)n2c(nc3ccccc32)c1C#N`, 0.943%. For `CCCCCCn1c(=N)n(CC(O)COc2cccc(C)c2)c2ccccc21.Cl` (stereo not given), the “Growth Inhibition” value is listed as 34.1668%.

As to `COc1ccc2nc(C)cc(Nc3ccc(Cl)cc3)c2c1`, the “Growth Inhibition” value is reported as 15.7236%. The result for `COCCN(C(=O)Cc1cccs1)C(C(=O)NCc1ccc(OC)cc1)c1ccc(C(C)C)cc1` (stereo not given) reads 12.1412%; that for `CCc1c(C)c(=N)c2ccccc2n1C.I`, -4.4994%; that for `CC(C)(C)c1ccc2c(c1)CN(Cc1ccc(Cl)cc1)CO2`, 36.3995%. As to `COc1cccc(O)c1CN1CCC2(CCCN(Cc3ccc(F)cc3)C2)C1` (stereo not given), the “Growth Inhibition” value came out at 38.0312%. Consider `O=C(NC1CCN(Cc2ccccc2)CC1)c1cc(-c2ccncc2)nc2ccc(Cl)cc12`, for which the “Growth Inhibition” value was determined as 12.9682%.

The values above are taken from ChEMBL document CHEMBL3301555, “MMV Malaria Box screening in pLDH viability assay against Plasmodium falciparum gametocytes”.
